For one compound, Activity, IC50 and inhibition in vivo results are on record in ChEMBL document CHEMBL4834472 (J Med Chem, 2021).

Assay [1] has as its target Dual specificity tyrosine-phosphorylation-regulated kinase 1B (Homo sapiens) (UniProt Q9Y463). The experiment in a line: Inhibition of DYRK1B (unknown origin) assessed as residual activity at 500 nM.
In assay [2] the target is Cyclin-dependent kinase 2/cyclin E1 (Homo sapiens, UniProt P24941). The experiment in a line: Inhibition of CDK2/cyclin E1 (unknown origin) in presence of [32P]gammaATP by image analyser. The class given is protein-complex assay.
Assay [3] deals with Cyclin-dependent kinase 4/cyclin D1 (Homo sapiens, UniProt P11802). The experiment in a line: Inhibition of CDK4/cyclin D1 (unknown origin) in presence of [32P]gammaATP by image analyser. The class given is protein-complex assay.
Sequence of Cyclin-dependent kinase 4/cyclin D1 (P11802 whole entry): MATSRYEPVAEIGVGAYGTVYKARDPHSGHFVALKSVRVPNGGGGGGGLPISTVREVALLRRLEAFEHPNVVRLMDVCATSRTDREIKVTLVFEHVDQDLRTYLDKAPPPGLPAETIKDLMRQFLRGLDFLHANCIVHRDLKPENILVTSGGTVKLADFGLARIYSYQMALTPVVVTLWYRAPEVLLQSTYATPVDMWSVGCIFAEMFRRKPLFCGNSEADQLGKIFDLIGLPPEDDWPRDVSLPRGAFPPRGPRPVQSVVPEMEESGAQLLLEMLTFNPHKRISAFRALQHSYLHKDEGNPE
Sequence of Cyclin-dependent kinase 4/cyclin D1 (P24385 whole entry, further chain): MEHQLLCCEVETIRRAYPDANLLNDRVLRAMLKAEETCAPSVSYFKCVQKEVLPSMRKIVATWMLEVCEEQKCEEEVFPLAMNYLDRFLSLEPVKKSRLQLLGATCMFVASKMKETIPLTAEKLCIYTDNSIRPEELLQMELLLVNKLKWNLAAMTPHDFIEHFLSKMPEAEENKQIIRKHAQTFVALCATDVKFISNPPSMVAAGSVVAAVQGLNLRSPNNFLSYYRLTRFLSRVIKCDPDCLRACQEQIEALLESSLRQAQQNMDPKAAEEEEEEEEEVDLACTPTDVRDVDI
In assay [4] the target is T1, Receptor-type tyrosine-protein kinase FLT3 (Homo sapiens, UniProt P36888).
T1 sequence (P36888 whole entry): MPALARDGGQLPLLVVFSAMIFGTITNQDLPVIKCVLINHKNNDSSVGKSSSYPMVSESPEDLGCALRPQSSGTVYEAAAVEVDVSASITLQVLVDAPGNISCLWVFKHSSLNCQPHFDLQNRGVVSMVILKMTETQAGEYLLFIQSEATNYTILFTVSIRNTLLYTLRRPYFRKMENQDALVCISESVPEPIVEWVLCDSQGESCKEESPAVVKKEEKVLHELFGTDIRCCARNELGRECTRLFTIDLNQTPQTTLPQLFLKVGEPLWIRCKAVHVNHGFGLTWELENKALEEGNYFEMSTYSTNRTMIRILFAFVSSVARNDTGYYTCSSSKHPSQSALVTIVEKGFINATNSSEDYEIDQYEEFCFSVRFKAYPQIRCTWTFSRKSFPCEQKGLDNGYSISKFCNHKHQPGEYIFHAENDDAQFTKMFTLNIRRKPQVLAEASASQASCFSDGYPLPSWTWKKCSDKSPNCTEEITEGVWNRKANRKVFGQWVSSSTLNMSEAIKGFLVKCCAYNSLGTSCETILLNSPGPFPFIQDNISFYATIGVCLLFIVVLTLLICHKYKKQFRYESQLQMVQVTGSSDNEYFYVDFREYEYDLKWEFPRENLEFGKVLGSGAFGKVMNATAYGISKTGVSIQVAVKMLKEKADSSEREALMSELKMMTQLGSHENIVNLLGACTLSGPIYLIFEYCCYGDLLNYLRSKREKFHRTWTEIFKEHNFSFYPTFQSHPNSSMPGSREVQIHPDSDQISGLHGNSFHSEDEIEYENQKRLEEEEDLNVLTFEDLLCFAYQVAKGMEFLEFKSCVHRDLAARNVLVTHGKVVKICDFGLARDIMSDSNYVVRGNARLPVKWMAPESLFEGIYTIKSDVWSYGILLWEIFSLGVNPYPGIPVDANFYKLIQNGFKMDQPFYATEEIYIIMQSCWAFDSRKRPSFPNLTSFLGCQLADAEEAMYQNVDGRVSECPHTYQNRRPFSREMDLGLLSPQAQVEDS
The experiment in a line: Inhibition of wild type FLT3 (unknown origin) using AGLT peptide substrate in presence of [32P]gammaATP by image analyser.

In a further assay the test system is BaF3. As to the kind of experiment: Antiproliferative activity against mouse BaF3 cells harboring FLt3 ITD mutant assessed as cell death measured after 72 hrs by resazurin dye based assay. The settings on record: BaF3, 72 h. The class given is functional. A general note: Resazurin is reduced to fluorescent resorufin, in cell work by metabolically active cells.

Assay [5] concerns the target Dual specificity protein kinase CLK1 (Homo sapiens) (UniProt P49759). As to the kind of experiment: Inhibition of CLK1 (unknown origin) assessed as residual activity at 500 nM.
The test system of another assay is MV4-11. As to the kind of experiment: Antitumor activity against human MV4-11 cells xenografted in NRG mouse assessed as tumor growth inhibition treated at 50 mg/kg, po via gavage daily for 5 days in a week after 15 days of implantation measured after 21 days by luciferase based relative to control. Format: functional. As to conditions: MV4-11, po, 504 h, time 21 day. Background: In xenograft studies the graft and the host belong to different species.

Sequence of Dual specificity tyrosine-phosphorylation-regulated kinase 1B (Homo sapiens) (Q9Y463 whole entry, looked up): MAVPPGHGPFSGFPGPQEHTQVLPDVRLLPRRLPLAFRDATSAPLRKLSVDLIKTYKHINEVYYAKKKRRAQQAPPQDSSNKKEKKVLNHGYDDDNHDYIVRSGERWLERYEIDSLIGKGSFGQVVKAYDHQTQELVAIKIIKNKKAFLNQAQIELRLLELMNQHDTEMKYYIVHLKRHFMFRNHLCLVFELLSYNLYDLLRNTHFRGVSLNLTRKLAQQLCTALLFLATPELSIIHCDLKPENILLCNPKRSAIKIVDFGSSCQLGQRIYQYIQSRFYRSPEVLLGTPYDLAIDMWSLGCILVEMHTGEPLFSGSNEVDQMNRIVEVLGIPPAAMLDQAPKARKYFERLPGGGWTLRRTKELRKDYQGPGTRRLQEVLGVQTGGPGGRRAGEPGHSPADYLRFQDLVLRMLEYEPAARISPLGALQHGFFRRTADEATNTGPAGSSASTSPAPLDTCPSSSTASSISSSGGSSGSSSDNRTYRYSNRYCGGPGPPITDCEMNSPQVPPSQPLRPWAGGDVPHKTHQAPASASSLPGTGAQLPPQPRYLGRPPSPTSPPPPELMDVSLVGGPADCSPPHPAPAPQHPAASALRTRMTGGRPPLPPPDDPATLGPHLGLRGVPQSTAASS
Sequence of Dual specificity protein kinase CLK1 (Homo sapiens) (P49759 whole entry, looked up): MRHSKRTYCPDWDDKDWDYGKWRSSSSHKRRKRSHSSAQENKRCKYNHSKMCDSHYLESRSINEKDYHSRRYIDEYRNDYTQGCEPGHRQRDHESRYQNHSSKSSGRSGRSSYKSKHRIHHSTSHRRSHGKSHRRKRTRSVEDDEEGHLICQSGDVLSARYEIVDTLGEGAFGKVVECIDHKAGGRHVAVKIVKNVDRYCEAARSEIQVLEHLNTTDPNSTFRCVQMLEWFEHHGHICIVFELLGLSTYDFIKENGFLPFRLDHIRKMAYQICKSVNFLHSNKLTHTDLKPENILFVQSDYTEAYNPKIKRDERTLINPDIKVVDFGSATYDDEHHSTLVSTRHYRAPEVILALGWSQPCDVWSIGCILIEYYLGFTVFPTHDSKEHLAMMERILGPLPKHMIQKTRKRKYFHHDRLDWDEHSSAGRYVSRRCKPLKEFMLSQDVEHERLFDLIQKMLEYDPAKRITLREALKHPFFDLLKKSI

Consider `Cc1n[nH]c2ccc3nc(-c4c[nH]nc4C(F)(F)F)c4c(c3c12)CCCC4`, for which the Activity in assay [1] and in assay [5] was 4% each time. In addition, the IC50 is 258 nM in assay [2], above 1000 nM in assay [3], 25 nM in assay [4] and 62 nM in the assay on BaF3. The inhibition in vivo at 50 mg/kg in the assay with MV4-11 worked out at 90%.

As usually defined, the IC50 is the midpoint of a concentration-inhibition curve. The inhibition in vivo is how much of the control response was suppressed.
